We go through 31 compounds from patent US7951832B2, “Pyrazole derivatives as kinase inhibitors” (Burnham Institute for Medical Research, priority 2007, dated 2011).

The target in one assay is PI3 K P110α (Homo sapiens, UniProt P42336). The assay is described as follows: Inhibition of PI3K (P110α). It counts as biochemical. The following applies: values printed without % sign, read as IC50, read-out: PI3 K (% at 25 μM, or IC50), P110α.
Chain of PI3 K P110α (P42336 whole entry): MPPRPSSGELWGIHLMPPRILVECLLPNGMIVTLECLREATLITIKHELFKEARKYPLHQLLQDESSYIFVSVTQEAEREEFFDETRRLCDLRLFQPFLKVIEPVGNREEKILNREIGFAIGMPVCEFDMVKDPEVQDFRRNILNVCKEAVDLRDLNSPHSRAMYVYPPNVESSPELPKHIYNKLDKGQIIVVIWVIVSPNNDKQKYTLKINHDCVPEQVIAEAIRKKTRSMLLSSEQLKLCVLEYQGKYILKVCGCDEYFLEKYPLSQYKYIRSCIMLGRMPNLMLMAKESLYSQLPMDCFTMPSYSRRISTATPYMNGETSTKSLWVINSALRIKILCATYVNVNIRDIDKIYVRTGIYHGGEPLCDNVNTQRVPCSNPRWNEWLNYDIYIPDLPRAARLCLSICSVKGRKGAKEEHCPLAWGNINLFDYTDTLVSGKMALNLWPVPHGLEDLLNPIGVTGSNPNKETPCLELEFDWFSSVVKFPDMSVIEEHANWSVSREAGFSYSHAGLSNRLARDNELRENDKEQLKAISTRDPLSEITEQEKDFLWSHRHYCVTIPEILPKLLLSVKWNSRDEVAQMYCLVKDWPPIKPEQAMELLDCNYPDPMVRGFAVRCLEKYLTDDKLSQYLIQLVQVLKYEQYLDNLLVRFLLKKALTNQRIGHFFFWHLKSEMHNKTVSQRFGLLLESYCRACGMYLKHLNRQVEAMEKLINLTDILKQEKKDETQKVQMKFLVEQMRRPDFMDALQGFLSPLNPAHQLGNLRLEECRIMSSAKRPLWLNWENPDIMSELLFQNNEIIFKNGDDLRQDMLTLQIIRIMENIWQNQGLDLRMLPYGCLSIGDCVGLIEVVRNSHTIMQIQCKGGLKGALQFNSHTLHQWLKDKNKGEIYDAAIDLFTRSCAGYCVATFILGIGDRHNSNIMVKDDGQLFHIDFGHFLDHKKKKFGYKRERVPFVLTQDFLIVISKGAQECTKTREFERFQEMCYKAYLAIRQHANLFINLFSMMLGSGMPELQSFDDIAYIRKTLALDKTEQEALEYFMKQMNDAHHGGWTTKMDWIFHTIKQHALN
Chain of PI3 K P110α (P27986 whole entry partner): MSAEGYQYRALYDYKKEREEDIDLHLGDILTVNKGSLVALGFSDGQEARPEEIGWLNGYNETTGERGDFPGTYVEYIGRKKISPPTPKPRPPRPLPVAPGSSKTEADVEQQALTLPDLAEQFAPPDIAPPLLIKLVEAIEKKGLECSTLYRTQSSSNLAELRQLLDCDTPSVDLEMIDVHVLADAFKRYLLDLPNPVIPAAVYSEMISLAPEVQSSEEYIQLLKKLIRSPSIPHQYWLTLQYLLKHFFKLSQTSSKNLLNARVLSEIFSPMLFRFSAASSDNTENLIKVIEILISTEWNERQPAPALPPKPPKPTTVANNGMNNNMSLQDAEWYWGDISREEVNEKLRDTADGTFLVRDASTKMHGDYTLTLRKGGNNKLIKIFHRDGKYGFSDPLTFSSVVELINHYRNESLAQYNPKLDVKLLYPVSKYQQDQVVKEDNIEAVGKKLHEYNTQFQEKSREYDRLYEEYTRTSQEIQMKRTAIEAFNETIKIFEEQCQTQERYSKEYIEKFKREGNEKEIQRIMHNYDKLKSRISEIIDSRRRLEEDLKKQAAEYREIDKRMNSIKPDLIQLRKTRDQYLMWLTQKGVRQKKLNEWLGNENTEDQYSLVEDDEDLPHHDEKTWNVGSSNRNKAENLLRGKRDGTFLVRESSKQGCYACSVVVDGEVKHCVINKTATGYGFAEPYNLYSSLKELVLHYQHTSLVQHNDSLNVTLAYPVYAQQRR
By IC50 is commonly meant the concentration needed to halve the response being measured. With `Nc1ccc(C#Cc2n[nH]c3ccccc23)cc1`, the IC50 amounted to 83 nM.

Take `Cn1cncc1C#Cc1n[nH]c2ccccc12`: the half-maximal inhibitory concentration (IC50) is 62 nM. On the same count and under the same terms, the figure for `COc1ccc(C(NC(=O)c2ccc3c(C#Cc4cncn4C)n[nH]c3c2)c2ccncc2)cc1` (stereo not shown) is 82 nM.

Another assay addresses mTOR (Homo sapiens, UniProt P42345). The assay is described as follows: Inhibition of mTOR. It counts as biochemical. Conditions: IC50.
`Cn1cncc1C#Cc1n[nH]c2ccccc12`: the concentration for half-maximal inhibition (IC50) is over 100000 nM. Same read-out and setting: the figure for `O=C(O)c1ccc(C#Cc2n[nH]c3ccccc23)cc1` is 31000 nM.

Still in this assay, the particulars now being: read-out: mTOR (Inhibition % at 50 μM, or IC50); inhibition at 50 μM.
In general, inhibition refers to the relative decrease from the control value, in per cent. As to `Nc1ccc(C#Cc2n[nH]c3ccccc23)cc1`, the inhibition at 50 µM was determined as 9%.

For the compound `C(#Cc1n[nH]c2ccccc12)c1ccccc1`, the inhibition at 50 µM was 6%. Turning to `Fc1cc(F)cc(C#Cc2n[nH]c3ccccc23)c1`, the inhibition at 50 µM was found to be 6%. Same read-out and setting: the figure for `C(#Cc1n[nH]c2ccccc12)c1cccnc1` is 34%; for `C(#Cc1n[nH]c2ccccc12)c1ccncc1` it is 30%; for `Cn1cncc1C#Cc1n[nH]c2ccccc12` it is 46%. For the compound `O=[N+]([O-])c1ccc2c(C#Cc3ccccc3)n[nH]c2c1`, the inhibition at 50 µM was -1%.

On to `COc1ccc2cc(C#Cc3n[nH]c4ccccc34)ccc2c1`, for which the inhibition at 50 µM was 5%. On the same count and under the same terms, the figure for `FC(F)(F)c1cc(C#Cc2n[nH]c3ccccc23)cc(C(F)(F)F)c1` is -3%; for `C(#Cc1n[nH]c2ccccc12)c1ccsc1` it is 7%. Still for that read-out and setting: the figure for `C(#Cc1n[nH]c2ccccc12)c1ccccn1` is 13%; for `COC(=O)c1ccc2c(C#Cc3cncn3C)n[nH]c2c1` it is 4%; for `Cn1cncc1C#Cc1n[nH]c2cc(C(=O)O)ccc12` it is 24%.

As to `N#Cc1ccc(C#Cc2n[nH]c3ccccc23)cc1`, the inhibition at 50 µM is 1%. `Nc1cccc(C#Cc2n[nH]c3ccccc23)c1`: the inhibition at 50 µM amounted to 9%.

Take `C(#CC1CCCC1)c1n[nH]c2ccccc12`: the inhibition at 50 µM was determined as 3%. The same measure, in the same setting: in the case of `C(#CC1CC1)c1n[nH]c2ccccc12` it was 2%; in that of `COc1ccc(C#Cc2n[nH]c3ccccc23)cc1`, 5%; in that of `Cn1cncc1C#Cc1n[nH]c2cc(C(=O)NCc3cc4ccccc4[nH]3)ccc12`, 3%. The same measure, in the same setting: in the case of `Cc1ccc2[nH]c(C(C)NC(=O)c3ccc4c(C#Cc5cncn5C)n[nH]c4c3)nc2c1` (stereo not shown) it was -7%. On the same count and under the same terms, in the case of `Cn1cncc1C#Cc1n[nH]c2cc(C(=O)NC(c3ccncc3)c3ccc(Cl)cc3)ccc12` (stereo not shown) it was -27%. For `Cn1cncc1C#Cc1n[nH]c2cc(C(=O)NCc3cccs3)ccc12`, the inhibition at 50 µM is -14%. The same measure, in the same setting: in the case of `Cn1cncc1C#Cc1n[nH]c2cc(C(=O)NCc3ccco3)ccc12` it was -5%; in that of `Cn1cncc1C#Cc1n[nH]c2cc(C(=O)NC34CC5CC(CC(C5)C3)C4)ccc12`, -11%; in that of `Cn1cncc1C#Cc1n[nH]c2cc(C(=O)NCc3ccccn3)ccc12`, -17%.

Regarding `CC(C)(C)OC(=O)NCCCCCNC(=O)c1ccc(C#Cc2n[nH]c3ccccc23)cc1`, the inhibition at 50 µM was -6%. Same read-out and setting: the figure for `NCCCCCNC(=O)c1ccc(C#Cc2n[nH]c3ccccc23)cc1` is 3%; for `C(#Cc1n[nH]c2ncccc12)c1ccncc1` it is 15%; for `C(#Cc1n[nH]c2ncccc12)c1ccccn1` it is 7%.
